{
  "source": "patent US10766940B2",
  "about": "“Brain penetrant amylin receptor based peptides for Alzheimer's disease” (The Governors of the University of Alberta, priority 2016, dated 2020)",
  "key": {"TgCRND8 AD mouse model [1]": {"test_system": "TgCRND8 AD mouse model", "assay": "Morris Water Maze, chronic icv infusion of AC253", "format": "in vivo", "description": "(§1) Age-matched, wild-type littermate (C57BL/6 background) male or female mice were used. […] Heterozygous CTR (het CTR) mice (C57BL/6J background) with a 50% deletion of CTR were obtained from Drs. R. A. Davey and J. D. Zajac (Department of Medicine, Austin Health, University of Melbourne, Heidelberg, Victoria, Australia). Mice were housed individually under standard laboratory conditions (12/12-h light/dark cycle, lights on at 0600 h) with a room temperature of 21° C. Water and food were available ad libitum unless otherwise indicated. All tests were performed during the light phase between 0900 and 1600 h in accordance with institutional guidelines. The mice were 3 months old at the onset of testing.\n(§2) A microcannula was stereotaxically inserted into the right cerebral ventricle (0.12 right lateral and 0.06 posterior to bregma, 3 mm deep) of isofluorane-anesthetized mice, and connected to an osmotic pump (Alzet; model 2004) implanted subcutaneously on the back of the mouse. The pump infused a solution of either aCSF or AC253 in aCSF into the ventricle at a rate of […] to yield an estimated concentration of 1 μM AC253 in the mouse CSF at equilibrium based upon the known CSF dynamics in the mouse brain (Di Pardo et al., 2012). The pump reservoir was replaced every 28 days for a total of 5-6 months. Animals were monitored on a daily basis for signs of treatment-related toxicity, such as poor grooming, lethargy, loss of bodyweight, and abnormal behavior. […]\nThe MWM apparatus consisted of a 2 m circular blue plastic pool filled with water (24-25° C.), which was rendered opaque by the addition of non-toxic white paint. […] The behavior of a mouse was recorded by a video camera connected to a video tracking system (HVS Image 2100, HVS Image, Buckingham, UK).\nThe pool was surrounded by a white curtain, and a mouse was released facing the wall at points (N, E, S, W) which were chosen semi-randomly. […] Memory was evaluated in probe trial, administered on day 8 as the first trial of the day. […] Memory for the platform location was expressed as the percent of time spent in TQ."}, "TgCRND8 AD mouse model [2]": {"test_system": "TgCRND8 AD mouse model", "assay": "T-maze alternation, chronic icv infusion of AC253", "format": "in vivo", "details": "TgCRND8 mice receiving icv AC253 vs other groups", "description": "as §1\nas §2, with “The pump reservoir was replaced every 28 days for a total of 5-6 months.” left out"}, "[3]": {"test_system": "TgCRND8 and wild-type mice", "assay": "Daily monitoring for treatment-related toxicity during chronic icv infusion", "format": "in vivo, mouse", "details": "chronic icv infusion 5-6 months", "description": "(§3) A microcannula was stereotaxically inserted into the right cerebral ventricle (0.12 right lateral and 0.06 posterior to bregma, 3 mm deep) of isofluorane-anesthetized mice, and connected to an osmotic pump (Alzet; model 2004) implanted subcutaneously on the back of the mouse. The pump infused a solution of either aCSF or AC253 in aCSF into the ventricle at a rate of […] to yield an estimated concentration of 1 μM AC253 in the mouse CSF at equilibrium based upon the known CSF dynamics in the mouse brain (Di Pardo et al., 2012). The pump reservoir was replaced every 28 days for a total of 5-6 months. Animals were monitored on a daily basis for signs of treatment-related toxicity, such as poor grooming, lethargy, loss of bodyweight, and abnormal behavior. After completion of medication and behavioral tests, all mice were killed with an overdose of isoflourane anesthetic, perfused transcardially with saline, and the brains were harvested. The left hemisphere per animal was frozen for biochemical analysis (Western blot, ELISA), and the right hemisphere retained for histological analysis."}, "[4]": {"test_system": "APP, CTR, RAMP3, synapsin 1, synaptophysin, Iba1 in TgCRND8 mice brains", "assay": "Western blot of brain homogenates after 5 months icv AC253", "format": "in vivo, mouse", "description": "as §3\nFrozen brain tissues were homogenized in cold RIPA buffer with protease inhibitors and proteins were isolated and measured using BCA assay (BioRad, Mississauga, ON, Canada). Proteins were loaded at 50 μg per lane on a 12% polyacrylamide gel for CTR, RAMP3, NeuN, synapsin1, phospho-synapsin, and Iba1, or 4-20% polyacrylamide gradient gel (BioRad) for APP. Proteins were transferred to nitrocellulose membrane, and blocked with LiCOR blocking buffer. Blots were incubated with primary antibodies overnight at 4° C. on a shaker. Primary antibody used for CTR (1:1000 rabbit; Thermo Scientific), RAMP3 (1:1000 rabbit; Santa Cruz Biotechnology), 6E10 for APP (1:5000 mouse; 6E10; Covance), NeuN (1:1000, rabbit, Abcam), synapsin-1 (1:1000 rabbit, Abcam), synaptophysin (1:1000, rabbit, Abcam), phosphosynapsin (1:1000, rabbit, Abcam), Iba1 (1:1000, rabbit, Wako), β-tubulin (1:1000, rabbit, Cell Signaling Technology, Inc.) and β-actin (1:10000 mouse, Sigma-Aldrich). IRDye 800CW goat anti-rabbit and IRDye 680CW goat anti-mouse were used as secondary antibodies. Blots were imaged using LiCor Odyssey image system."}, "[5]": {"test_system": "Aβ plaques in TgCRND8 mice brains", "assay": "Immunofluorescent-histological staining of Aβ plaques (6E10)", "format": "in vivo, mouse", "details": "Tg AC253 vs Tg CSF", "description": "as §2\nFor immunostaining, […] thick brain sections were cut using a Cryostat (Leica CM1850), fixed with 4% paraformaldehyde in PBS, permeabilized using 0.3% Triton X-100 and stained with Aβ (6E10), Iba1, and CTR antibody, followed by fluorescent secondary antibody (goat anti mouse Alexa Fluor-546 and donkey anti rabbit Alexa Fluor-488) and mounted in DAPI mounting media. Fluorescent microscopy images were acquired with an Axioplan-2 fluorescence microscope with AxioVision software (Carl Zeiss Ltd., Toronto, ON, Canada). Amyloid plaque size and area were analyzed with Image J."}, "[6]": {"assay": "Lipophilicity, shake flask 1-octanol/water partition", "format": "physicochemical", "description": "Peptides hydrophobicity was determined using the shake flask method and 1-octanol/water partition coefficient (log Po/w) was determined. […] Peptide concentration (area) in both phases (1-octanol and water) were analyzed by RP-HPLC. The final log Po/w value was calculated by dividing the concentration (C) of the peptide in the two phases as presented by the area under the peak (partition coefficients=C1-octanol/Cwater)."}},
  "data": [
    {"compound": "CC(C)C[C@H](NC(=O)[C@H](CCCNC(=N)N)NC(=O)CNC(=O)[C@@H](N)CC(C)C)C(=O)N[C@@H](CO)C(=O)N[C@@H](CCC(N)=O)C(=O)N[C@@H](CCC(=O)O)C(=O)N[C@@H](CC(C)C)C(=O)N[C@@H](Cc1c[nH]cn1)C(=O)N[C@@H](CCCNC(=N)N)C(=O)N[C@@H](CC(C)C)C(=O)N[C@@H](CCC(N)=O)C(=O)N[C@H](C(=O)N[C@@H](Cc1ccc(O)cc1)C(=O)N1CCC[C@H]1C(=O)N[C@@H](CCCNC(=N)N)C(=O)N[C@H](C(=O)N[C@@H](CC(N)=O)C(=O)N[C@H](C(=O)NCC(=O)N[C@@H](CO)C(=O)N[C@@H](CC(N)=O)C(=O)N[C@H](C(=O)N[C@@H](Cc1ccc(O)cc1)C(N)=O)[C@@H](C)O)[C@@H](C)O)[C@@H](C)O)[C@@H](C)O", "note": "[AC253]", "values": [
      {"measurement": "latencies to locate the hidden platform (MWM)", "setting": "TgCRND8 AD mouse model [1]; TgCRND8 mice at 8 months of age, after 5 months of icv treatment, vs littermates receiving CSF", "value": "marked improvement in latencies to locate the hidden platform"},
      {"measurement": "memory in probe trials for location of the target quadrant", "setting": "TgCRND8 AD mouse model [1]; TgCRND8 mice, 8 months of age", "value": "enhanced and persistent memory in probe trials"},
      {"measurement": "memory deficits in MWM, Wt controls", "setting": "TgCRND8 AD mouse model [1]; wild-type littermate controls, icv AC253 or CSF, 8 months of age", "value": "no memory deficits"},
      {"measurement": "T-maze, identification of the food arm", "setting": "TgCRND8 AD mouse model [2]", "value": "correctly identified the food arm of the maze"},
      {"measurement": "signs of off-target effects or changes in body weight", "setting": "[3]", "value": "none of the mice receiving AC253 showed any signs of off-target effects"},
      {"measurement": "amylin receptor (CTR, RAMP3 proteins) expression levels in the brain", "setting": "[4]; Tg AC253 vs Tg CSF", "value": "no noticeable difference"},
      {"measurement": "increase in expression level of synapsin 1", "setting": "[4]; Tg AC253 vs Tg CSF controls", "value": 40, "unit": "%"},
      {"measurement": "increase in expression level of synaptophysin", "setting": "[4]; Tg AC253 vs Tg CSF controls", "value": 30, "unit": "%"},
      {"measurement": "APP expression (Western blot)", "setting": "[4]; Tg AC253 vs Tg CSF, 5 months icv", "value": "no significant difference"},
      {"measurement": "reduction of expression levels of Iba-1 (microglial marker)", "setting": "[4]; Tg-AC253 vs Tg-CSF", "value": 50, "unit": "%"},
      {"measurement": "number of Aβ plaques, total area of Aβ-positive profiles", "setting": "[5]", "value": "did not reveal significant difference"},
      {"measurement": "Partition coefficient", "setting": "[6]", "value": 1.05},
      {"measurement": "logP", "setting": "[6]", "value": -1.2}
    ]}
  ]
}
